Data taken from the supplement of paper PMC10307832.

Tests used:
Test in all cases: relative viability (nuclei count vs DMSO), 5 days (fraction); higher = more cells survive
VX-702 + OSI-027 = compound: NC(=O)c1ccc(N(C(N)=O)c2c(F)cccc2F)nc1-c1ccc(F)cc1F [VX-702] + COc1cccc2cc(-c3nc([C@H]4CC[C@H](C(=O)O)CC4)n4ncnc(N)c34)[nH]c12 [OSI-027] (partner 0.5 µM)
Method in brief: (§1)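 Relative viability was taken as the ratio of nuclei in treated wells to nuclei in vehicle wells. Lung cancer cell lines in 1536-well plates received compounds by pin tool one day after seeding, either one drug alone or a fixed anchor-drug dose plus five library-drug doses (not always all listed) in √10 steps. Nuclei were counted on 4× images after 5 days of treatment, and values are medians of duplicate plates.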

Dabrafenib + Crizotinib = compound: CC(C)(C)c1nc(-c2cccc(NS(=O)(=O)c3c(F)cccc3F)c2F)c(-c2ccnc(N)n2)s1 [Dabrafenib] + C[C@@H](Oc1cc(-c2cnn(C3CCNCC3)c2)cnc1N)c1c(Cl)ccc(F)c1Cl [Crizotinib] (partner 1 µM)
Method in brief: as §1

Dabrafenib + OSI-027 = compound: CC(C)(C)c1nc(-c2cccc(NS(=O)(=O)c3c(F)cccc3F)c2F)c(-c2ccnc(N)n2)s1 [Dabrafenib] + COc1cccc2cc(-c3nc([C@H]4CC[C@H](C(=O)O)CC4)n4ncnc(N)c34)[nH]c12 [OSI-027] (partner 0.5 µM)
Method in brief: as §1

Dabrafenib + Decitabine = compound: CC(C)(C)c1nc(-c2cccc(NS(=O)(=O)c3c(F)cccc3F)c2F)c(-c2ccnc(N)n2)s1 [Dabrafenib] + Nc1ncn([C@H]2C[C@H](O)[C@@H](CO)O2)c(=O)n1 [Decitabine] (partner 2 µM)
Method in brief: as §1

Row | Cell Line | relative viability (VX-702 + OSI-027; first compound 0.02 µM) | relative viability (VX-702 + OSI-027; first compound 0.2 µM) | relative viability (VX-702 + OSI-027; first compound 0.6325 µM) | relative viability (VX-702 + OSI-027; first compound 2 µM) | relative viability (Dabrafenib + Crizotinib; first compound 0.003 µM) | relative viability (Dabrafenib + Crizotinib; first compound 0.009487 µM) | relative viability (Dabrafenib + Crizotinib; first compound 0.03 µM) | relative viability (Dabrafenib + Crizotinib; first compound 0.09487 µM) | relative viability (Dabrafenib + Crizotinib; first compound 0.3 µM) | relative viability (Dabrafenib + OSI-027; first compound 0.003 µM) | relative viability (Dabrafenib + OSI-027; first compound 0.009487 µM) | relative viability (Dabrafenib + OSI-027; first compound 0.03 µM) | relative viability (Dabrafenib + OSI-027; first compound 0.09487 µM) | relative viability (Dabrafenib + OSI-027; first compound 0.3 µM) | relative viability (Dabrafenib + Decitabine; first compound 0.003 µM) | relative viability (Dabrafenib + Decitabine; first compound 0.009487 µM) | relative viability (Dabrafenib + Decitabine; first compound 0.03 µM) | relative viability (Dabrafenib + Decitabine; first compound 0.09487 µM) | relative viability (Dabrafenib + Decitabine; first compound 0.3 µM)
1 | NCI-H838 | 0.394 | 0.356 | 0.448 | 0.409 | 0.858 | 0.905 | 0.759 | 0.829 | 0.979 | 0.339 | 0.483 | 0.388 | 0.405 | 0.412 | 0.436 | 0.466 | 0.497 | 0.428 | 0.335
2 | NCI-H1993 | 0.516 | 0.518 | 0.563 | 0.579 | 0.86 | 0.946 | 0.826 | 0.929 | 1.06 | 0.468 | 0.498 | 0.433 | 0.565 | 0.56 | 0.564 | 0.719 | 0.538 | 0.68 | 0.618
3 | SK-MES-1 | 0.669 | 0.666 | 0.584 | 0.542 | 0.919 | 0.985 | 1.04 | 0.912 | 0.962 | 0.254 | 0.663 | 0.552 | 0.495 | 0.23 | 0.362 | 0.441 | 0.405 | 0.382 | 0.338
4 | NCI-H661 | 0.708 | 0.702 | 0.748 | 0.893 | 1.07 | 0.958 | – | 0.96 | 1.04 | 0.785 | 0.709 | 0.676 | 0.682 | 0.675 | 0.656 | 0.57 | 0.575 | 0.573 | 0.514
5 | NCI-H1650 | 0.635 | 0.652 | 0.806 | 0.541 | 1.04 | 1.21 | 0.907 | 0.995 | 1.11 | 0.318 | 0.899 | 0.374 | 0.803 | 0.948 | 0.415 | 0.389 | 0.395 | 0.387 | 0.329
6 | ABC-1 | 0.47 | 0.578 | 0.509 | 0.615 | – | 1.11 | 1.02 | 0.961 | 1.34 | 0.442 | 0.42 | 0.496 | 0.537 | 0.507 | – | 1.07 | 1.15 | 1.28 | 1.54
7 | LU99A | 0.339 | 0.323 | 0.312 | 0.283 | 0.585 | 0.525 | 0.466 | 0.562 | 0.484 | 0.282 | 0.307 | 0.29 | 0.339 | 0.268 | 0.965 | 0.954 | 0.708 | 0.85 | 0.907
8 | ChaGo-K-1 | 0.641 | 0.624 | 0.567 | 0.566 | – | 1.16 | 1.15 | 1.03 | 1.12 | 0.209 | 0.53 | 0.502 | 0.504 | 0.651 | 0.456 | 0.508 | 0.552 | 0.522 | 0.402
9 | NCI-H2170 | 0.746 | 0.693 | 0.698 | 0.762 | 1.28 | 1.24 | 0.96 | 1.02 | 1.27 | 0.749 | 0.698 | 0.589 | 0.745 | 0.684 | 0.47 | 0.472 | 0.423 | 0.42 | 0.36
10 | NCI-H2347 | 0.491 | – | 0.494 | 0.336 | 0.441 | 0.698 | 0.67 | 0.674 | 0.62 | – | 0.514 | 0.254 | 0.394 | 0.416 | – | 0.657 | 0.598 | 0.706 | 0.616
11 | NCI-H1437 | 0.885 | 0.843 | 0.977 | 0.987 | 0.935 | 0.902 | 0.906 | 0.896 | 0.978 | 0.926 | 0.849 | 1.04 | 0.922 | 0.878 | 0.582 | 0.55 | 0.626 | 0.513 | 0.43
12 | NCI-H1651 | 0.733 | 0.685 | 0.786 | 0.652 | 0.85 | 0.875 | 0.859 | 0.785 | 0.786 | 0.724 | 0.666 | 0.748 | 0.714 | 0.736 | 0.603 | 0.679 | 0.618 | 0.512 | 0.243
13 | RERF-LC-KJ | 0.608 | 0.547 | 0.57 | 0.534 | 0.845 | 0.791 | 0.769 | 0.779 | 0.846 | 0.565 | 0.767 | 0.615 | 0.68 | 0.731 | 0.792 | 0.724 | 0.655 | 0.731 | 0.705
14 | EKVX | 0.811 | 0.607 | 0.675 | 0.668 | 0.875 | 1.12 | 0.783 | 0.702 | 1.01 | 0.649 | 0.79 | 0.693 | 0.652 | 0.729 | – | 0.38 | 0.29 | 0.44 | 0.353
15 | EMC-BAC-2 | 0.372 | 0.404 | 0.355 | 0.313 | 0.859 | 0.749 | 0.678 | 0.672 | 0.828 | 0.359 | 0.376 | 0.301 | 0.295 | 0.329 | – | 0.959 | 0.974 | 0.933 | 0.905
16 | PC-3 [JPC-3] | 0.8 | 0.768 | 0.818 | 0.644 | 0.95 | 1.03 | 0.978 | 1.02 | 1 | 0.629 | 0.84 | 0.771 | 0.705 | 0.801 | – | 0.865 | 0.872 | 0.812 | 0.804
